Measurements taken from US20250090510A1, “eIF4G1-eIF1 INHIBITORS AND USE THEREOF” (YEDA RESEARCH AND DEVELOPMENT CO. LTD., priority 2022, published 2025).

Experiments:
HEK293T cells = assay: Ribo-seq and TI-seq translation efficiency analysis; assay type: cell-based, human; details: i14G1-10 20 μM, i14G1-12 10 μM; 3 h
Experimental: FIGS. 4A-L: The effect eIF1-eIF4G1 inhibition by i14G1-10 or i14G1-12 on global translation is linked to start codon stringency. (4A) HEK293T cells were treated with DMSO, i14G1-10 (20 μM), and […] (10 μM) for 3 h and then ribosome foot printing libraries were prepared, sequenced and analyzed as described in the scheme. The presented graphs show meta-gene analysis of the distribution of normalized reads in the coding region (CDS) and 5′UTR of all analyzed genes in DMSO (black), i14G1-10 (blue), and i14G1-12 (red). (4B) Summary of the number of genes whose ribosomal occupancy was affected (fold change, […]) or unaffected in coding regions (CDS) (left) and 5′UTR (right) in i14G1-10 or i14G1-12 samples. […] (4E) Analysis of the nucleotide context of the annotated start codon of i14G1-10 and i14G1-12 differentially translated mRNAs using the STREME motif discovery algorithm. (4F) The translation efficiency of eIF1 in DMSO, i14G1-10 and i14G1-12 samples calculated from the Ribo-seq data. The weak AUG context of eIF1 is shown above. […] (4I) HEK293T cells were transfected with a firefly luciferase reporter gene driven by either by AUG or near cognate start codon, i.e., ACG, CUG, GUG, and UUG. The Renilla luciferase reporter gene was also co-transfected and served as a normalizing control. The near cognate start codon activities in DMSO control and i14G1-10 and i14G1-12 treated cells are presented as a percentage of AUG activity. The data are shown as mean±SEM, n=5. the asterisks denote statistically significant difference compared to DMSO, according to Student's t-tests (one-tailed, paired). *p<0.05; **p<0.01. (4J) Scatter plots showing the translation efficiencies correlations (R2 >0.9) of all analyzed genes between the two independent replicate experiments with DMSO (vehicle control) (top), i14G1-10 (middle), and i14G1-12 (bottom). (4K) Scatter plots showing the translation efficiencies correlations between 5′UTR and CDS (Pearson's r >0.5) of all analyzed genes of two independent replicate experiments with i14G1-10 (left) and i14G1-12 (right).
Ribo-seq and TI-seq. HEK293T cells were grown in 10 cm culture dish until 80% confluence, and treated with DMSO, i14G1-10 ([…]), and i14G1-12 (10 μM). After 3 h, for TI-seq, cells were treated with 2 μg/ml harringtonine (Hrr) for 2 minutes followed by the addition of 100 μg/ml cycloheximide (CHX) for 5 minutes. For Ribo-seq cells were treated with 100 μg/ml cycloheximide (CHX) for 5 minutes. Thereafter, cells were lysed in polysome buffer. For both TI-seq and Ribo-seq, ribosome fractions were isolated using sucrose density centrifugation followed by Rnase I digestion. The total RNA was isolated using tri-reagent and used for high-throughput library preparation as described (Ingolia et al. 2012). The libraries were sequenced on the HiSeq2500 High-Output instrument (Illumina) for SR-60.
RNA-seq libraries. Total RNA was isolated from the lysates used for TI-seq and Ribo-seq, using Bio Tri RNA reagent. Total RNA was then cleaned up using Oligo d(T)25 Magnetic Beads (NEB 514195) to isolate mRNA. RNA-seq libraries prepared using a derivation of MARS-seq, produce expression libraries with two replicates of each treatment. ˜25 ng RNA was taken for first Reverse transcription reaction using Illumina barcoded RT1 primer. Resultant barcoded cDNA samples were subsequently pooled according to Ct values of Housekeeping gene (GAPDH) (Quality control 1). Pooled cDNA was treated with Exonuclease I to remove excess primers followed by Second strand synthesis using NEB SSS module enzyme mix. After that, in vitro transcription was performed using NEB T7 RNA Pol mix to generate RNA which was fragmented and ligated to an adaptor consisting RD2 using T4 RNA ligase I (NEB) followed by a second Reverse transcription reaction. The library was amplified using Kappa Hifi ready mix. The RNA libraries were sequenced using a high-throughput 75 bp kit (Illumina FC404-2005) on NEXTseq 500 sequencer. […]

eIF1-eIF4G1 interaction = molecular target: T1, eIF1-eIF4G1 interaction (Homo sapiens, UniProt Q04637); assay: GST pull down of His-eIF1 with GST-eIF4G1; assay type: binding; details: GST-eIF4G1 (aa 675-725) with His-eIF1, vs DMSO
T1 construct: GST-eIF4G1 (aa 675-725) was incubated with His-eIF1; made in house; host or cells: His-eIF1: E. coli BL21
Text: FIGS. 1A-G: Identification and initial characterization of eIF1-eIF4G1 inhibitors using a high-throughput drug screen (HTS). (1A) A flowchart describing the steps of the recombinant eIF1-eIF4G1 split-RL HTS. (1B) Selection of drugs that inhibit leaky scanning. HEK293T cells were transfected with a short 5′UTR bearing GFP reporter gene described on the top, treated with the indicated HTS hits, and then analyzed by western blot with GFP antibody. US and DS denote upstream and downstream AUG initiation sites, respectively. (1C) A graph showing the change in the ratio of the upstream and downstream AUG following treatment with the indicated drugs. (1D) The chemical structure of the eIF1-eIF4G1 inhibitors, i14G1-10 and i14G1-12. (1E) His-tagged eIF4G1 and His-tagged eIF1 were expressed in BL21 bacteria and purified using nickel NTA beads. Purified His-tagged eIF4G1 and His-tagged eIF1 were incubated with the indicated doses of either i14G1-10 (0-256 μM) or i14G1-12 (0-256 μM) for 5 minutes, followed by fluorescence measurement. For eIF4G1 excitation was at 280 nm and emission was at 350 nm. For eIF1 excitation was at 274 nm and emission was at 304 nm. The data shown represent three independent replicates. IC50 was calculated using Graphpad prism 9. (1F-1G) Western blots of GST pull down. […]

T1 sequence (Q04637 675-725): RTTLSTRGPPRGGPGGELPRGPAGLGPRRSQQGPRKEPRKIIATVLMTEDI

Row | SMILES | ATF4 main ORF translation (HEK293T cells) | number of genes with translational downregulation of CDS (≥1.7 fold) (HEK293T cells) [genes] | number of genes with translational upregulation of CDS (HEK293T cells) [genes] | number of genes with upregulated 5′UTR translation (HEK293T cells) [genes] | translation efficiency of endogenous eIF1 (HEK293T cells) | association of eIF1 with eIF4G1 (eIF1-eIF4G1 interaction)
1 | Cn1ccnc1S/C(=C/C=C(C#N)C#N)c1ccc(Cl)cc1 [i14G1-12] | upregulated | 874 | 547 | 1207 | upregulated | decrease in the association of eIF1 with eIF4G1
2 | O=C(/C=C/Sc1ccc(C(F)(F)F)cn1)c1ccccc1 [i14G1-10] | upregulated | 320 | 255 | 806 | upregulated | decrease in the association of eIF1 with eIF4G1
